How the values were obtained:
[1] = target: human kappa opioid receptor (Homo sapiens, UniProt P41145); test: In vitro kappa-opioid receptor binding assay ([3H]-U69,593 displacement)
[2] = target: human μ-opioid receptors (Homo sapiens, UniProt P35372); test: In vitro mu-opioid receptor binding assay ([3H]-diprenorphine displacement); settings: read-out: Mu opioid receptor Ki [Average ± Std Deviation]
[3] = target: T1, CYP1A2 (Homo sapiens, UniProt P05177); test: biochemical
T1 sequence (P05177 1-516): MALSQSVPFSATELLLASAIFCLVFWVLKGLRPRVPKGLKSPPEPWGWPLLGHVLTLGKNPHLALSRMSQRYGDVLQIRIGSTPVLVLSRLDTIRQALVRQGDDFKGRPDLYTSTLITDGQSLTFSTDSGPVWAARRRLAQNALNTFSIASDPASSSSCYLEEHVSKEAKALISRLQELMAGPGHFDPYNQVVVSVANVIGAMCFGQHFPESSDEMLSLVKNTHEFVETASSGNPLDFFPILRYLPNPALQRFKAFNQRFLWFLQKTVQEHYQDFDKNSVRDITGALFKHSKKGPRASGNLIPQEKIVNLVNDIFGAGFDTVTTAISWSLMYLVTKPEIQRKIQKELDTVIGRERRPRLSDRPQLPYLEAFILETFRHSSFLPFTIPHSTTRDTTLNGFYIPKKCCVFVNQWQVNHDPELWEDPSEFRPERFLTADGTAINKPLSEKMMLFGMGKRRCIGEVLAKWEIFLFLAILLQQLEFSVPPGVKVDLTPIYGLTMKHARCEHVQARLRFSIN

[4] = target: human opioid receptor-like (ORL-1) (Homo sapiens, UniProt P41146); test: ORL-1 receptor [35S]GTPγS functional binding assay; assay type: biochemical
human opioid receptor-like (ORL-1), sequence (P41146 whole entry): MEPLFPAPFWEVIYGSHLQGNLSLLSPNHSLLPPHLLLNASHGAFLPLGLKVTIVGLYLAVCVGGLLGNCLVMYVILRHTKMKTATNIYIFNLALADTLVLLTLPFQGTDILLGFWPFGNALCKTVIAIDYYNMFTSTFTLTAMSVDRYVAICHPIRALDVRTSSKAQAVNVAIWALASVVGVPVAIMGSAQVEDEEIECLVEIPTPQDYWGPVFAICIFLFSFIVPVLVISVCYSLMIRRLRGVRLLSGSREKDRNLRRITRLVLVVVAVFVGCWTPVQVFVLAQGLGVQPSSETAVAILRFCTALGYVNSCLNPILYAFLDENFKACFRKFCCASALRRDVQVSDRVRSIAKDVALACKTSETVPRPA

[5] = target: CYP2C9 (Homo sapiens, UniProt P11712); test: biochemical
CYP2C9, sequence (P11712 whole entry): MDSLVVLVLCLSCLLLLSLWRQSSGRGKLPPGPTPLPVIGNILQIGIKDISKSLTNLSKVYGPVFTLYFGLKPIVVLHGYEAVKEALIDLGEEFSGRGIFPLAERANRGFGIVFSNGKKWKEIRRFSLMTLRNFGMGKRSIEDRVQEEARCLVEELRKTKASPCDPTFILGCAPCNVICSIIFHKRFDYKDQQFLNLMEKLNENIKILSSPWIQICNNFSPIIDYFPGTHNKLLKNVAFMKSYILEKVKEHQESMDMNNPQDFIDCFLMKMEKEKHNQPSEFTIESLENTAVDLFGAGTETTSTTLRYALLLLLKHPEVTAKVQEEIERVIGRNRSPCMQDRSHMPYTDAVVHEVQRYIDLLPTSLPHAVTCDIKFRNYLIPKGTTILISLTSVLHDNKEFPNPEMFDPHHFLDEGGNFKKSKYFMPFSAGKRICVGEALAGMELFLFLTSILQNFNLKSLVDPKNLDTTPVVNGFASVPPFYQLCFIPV

[6] = target: CYP3A4 (Homo sapiens, UniProt P08684); test: biochemical
CYP3A4, sequence (P08684 whole entry): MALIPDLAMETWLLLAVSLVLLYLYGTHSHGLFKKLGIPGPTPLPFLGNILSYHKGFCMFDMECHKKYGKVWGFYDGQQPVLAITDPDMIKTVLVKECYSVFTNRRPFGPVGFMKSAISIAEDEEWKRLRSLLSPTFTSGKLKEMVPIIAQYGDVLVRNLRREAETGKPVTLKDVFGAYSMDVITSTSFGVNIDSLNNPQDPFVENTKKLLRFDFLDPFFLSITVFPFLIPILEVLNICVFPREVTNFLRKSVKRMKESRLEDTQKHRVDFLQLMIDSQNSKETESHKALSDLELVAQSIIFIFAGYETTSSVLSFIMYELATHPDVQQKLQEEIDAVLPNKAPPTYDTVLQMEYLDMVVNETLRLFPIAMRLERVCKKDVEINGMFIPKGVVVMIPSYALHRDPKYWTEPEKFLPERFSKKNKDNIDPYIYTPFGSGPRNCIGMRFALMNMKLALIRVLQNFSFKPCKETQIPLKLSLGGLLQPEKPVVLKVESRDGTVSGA

[7] = target: CYP2C19 (Homo sapiens, UniProt P33261); test: biochemical
CYP2C19, sequence (P33261 whole entry): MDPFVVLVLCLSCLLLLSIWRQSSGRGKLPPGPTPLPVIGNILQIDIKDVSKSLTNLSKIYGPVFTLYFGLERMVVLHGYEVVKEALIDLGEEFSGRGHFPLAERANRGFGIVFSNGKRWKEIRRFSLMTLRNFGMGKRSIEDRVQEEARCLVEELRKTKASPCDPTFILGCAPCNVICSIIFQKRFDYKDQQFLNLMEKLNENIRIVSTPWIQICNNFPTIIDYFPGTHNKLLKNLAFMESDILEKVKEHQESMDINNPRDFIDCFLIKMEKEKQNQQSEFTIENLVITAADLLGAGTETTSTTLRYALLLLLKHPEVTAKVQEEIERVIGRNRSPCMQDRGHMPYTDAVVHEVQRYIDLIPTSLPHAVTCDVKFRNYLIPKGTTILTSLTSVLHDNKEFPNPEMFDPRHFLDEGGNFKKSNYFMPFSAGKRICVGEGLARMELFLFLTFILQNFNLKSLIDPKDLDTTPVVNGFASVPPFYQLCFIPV

[8] = target: delta opioid receptor (Homo sapiens, UniProt P41143); test: In vitro delta-opioid receptor binding assay ([3H]-Naltrindole displacement)
delta opioid receptor, sequence (P41143 whole entry): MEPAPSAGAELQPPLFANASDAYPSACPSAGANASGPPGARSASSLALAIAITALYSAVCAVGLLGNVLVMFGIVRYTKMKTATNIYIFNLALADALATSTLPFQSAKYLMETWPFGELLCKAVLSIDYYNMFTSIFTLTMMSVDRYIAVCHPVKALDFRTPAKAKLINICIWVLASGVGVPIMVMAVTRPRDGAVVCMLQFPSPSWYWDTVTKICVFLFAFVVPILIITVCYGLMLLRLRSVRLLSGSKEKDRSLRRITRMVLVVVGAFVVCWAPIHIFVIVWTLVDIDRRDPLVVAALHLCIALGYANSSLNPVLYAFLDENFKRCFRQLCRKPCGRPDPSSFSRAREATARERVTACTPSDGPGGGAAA

[9] = target: CYP2D6 (Homo sapiens, UniProt P10635); test: biochemical
CYP2D6, sequence (P10635 whole entry): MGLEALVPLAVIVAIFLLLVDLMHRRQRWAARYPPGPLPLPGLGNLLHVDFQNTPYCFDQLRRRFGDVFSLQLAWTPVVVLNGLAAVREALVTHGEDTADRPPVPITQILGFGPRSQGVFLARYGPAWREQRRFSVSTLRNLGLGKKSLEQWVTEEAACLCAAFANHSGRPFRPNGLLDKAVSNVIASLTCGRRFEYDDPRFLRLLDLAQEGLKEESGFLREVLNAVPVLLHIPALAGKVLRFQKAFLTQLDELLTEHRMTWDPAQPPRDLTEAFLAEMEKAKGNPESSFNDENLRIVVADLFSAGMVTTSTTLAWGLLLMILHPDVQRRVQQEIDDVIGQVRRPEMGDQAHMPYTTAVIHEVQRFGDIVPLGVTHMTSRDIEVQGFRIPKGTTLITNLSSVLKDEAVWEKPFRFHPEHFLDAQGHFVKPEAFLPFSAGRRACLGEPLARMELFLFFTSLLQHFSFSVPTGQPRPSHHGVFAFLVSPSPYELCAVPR

human μ-opioid receptors, sequence (P35372 whole entry): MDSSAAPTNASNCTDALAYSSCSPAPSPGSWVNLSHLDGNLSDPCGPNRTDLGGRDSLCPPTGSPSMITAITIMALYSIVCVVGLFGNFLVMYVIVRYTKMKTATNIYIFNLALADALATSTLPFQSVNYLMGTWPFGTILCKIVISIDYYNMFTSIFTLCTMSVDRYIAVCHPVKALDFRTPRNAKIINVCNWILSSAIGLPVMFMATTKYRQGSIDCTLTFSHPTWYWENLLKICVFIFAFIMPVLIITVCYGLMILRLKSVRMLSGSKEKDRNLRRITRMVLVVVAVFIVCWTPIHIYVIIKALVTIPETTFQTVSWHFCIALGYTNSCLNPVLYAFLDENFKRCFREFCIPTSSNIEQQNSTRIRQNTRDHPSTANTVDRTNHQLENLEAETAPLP
human kappa opioid receptor, sequence (P41145 whole entry): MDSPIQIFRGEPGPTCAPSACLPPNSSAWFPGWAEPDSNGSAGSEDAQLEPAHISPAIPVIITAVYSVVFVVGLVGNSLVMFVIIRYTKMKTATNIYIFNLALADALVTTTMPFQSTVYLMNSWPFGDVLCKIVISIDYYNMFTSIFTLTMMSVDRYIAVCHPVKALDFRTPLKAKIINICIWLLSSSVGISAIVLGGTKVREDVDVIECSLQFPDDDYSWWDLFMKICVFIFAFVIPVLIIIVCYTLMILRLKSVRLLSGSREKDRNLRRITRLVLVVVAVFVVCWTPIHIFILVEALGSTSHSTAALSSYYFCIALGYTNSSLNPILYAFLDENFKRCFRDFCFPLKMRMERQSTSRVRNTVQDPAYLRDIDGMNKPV

| SMILES | Ki [1] [µM] | Ki [2] [µM] | IC50 [3] [µM] | EC50 [4] [µM] | IC50 [5] [µM] | IC50 [6] [µM] | IC50 [7] [µM] | Ki [8] [µM] | IC50 [9] [µM] |
| --- | --- | --- | --- | --- | --- | --- | --- | --- | --- |
| CON=C(CCC(=O)O)c1nc2ccccc2n([C@H]2C[C@H]3COC[C@@H](C2)N3C2CC3CCCCC(C3)C2)c1=O (some centres unmarked) [Compound 48] | > 20 | 15.6 | > 20 | 0.149 ± 0.029 | > 20 | > 20 | > 20 | > 20 | > 20 |
| NC(=O)/C(=N\OCC(=O)O)c1nc2ccccc2n([C@H]2C[C@H]3CCC[C@@H](C2)N3C2CC3CCCC(C3)C2)c1=O (some centres unmarked) [Compound 40] | 1.7 ± 0.278 | 2.71 ± 0.285 | > 20 | 0.113 ± 0.031 | > 20 | > 20 | > 20 | > 20 | > 20 |
| C/C(=N\OCC(=O)O)c1nc2ccccc2n([C@H]2C[C@H]3CCC[C@@H](C2)N3C2CCCCCCCCC2)c1=O [Compound 21] |  |  | > 20 | 0.239 ± 0.0254 | > 20 | > 20 | > 20 |  | > 20 |
| CON=C(CCC(=O)O)c1nc2ccccc2n([C@H]2C[C@H]3CC[C@@H](C2)N3C2CC3CCCC(C3)C2)c1=O (stereo partly drawn) [Compound 14, 4-(4-((1R,3R)-8-(bicyclo[3.3.1]nonan-3-yl)-8-azabicyclo[3.2.1]octan-3-yl)-3-oxo-3,4-dihydroquinoxalin-2-yl)-4-(methoxyimino)butanoic acid] | 2.76 ± 0.245 | 2.3 ± 0.153 | > 20 | 0.15 ± 0.014 | > 20 | > 20 | > 20 | > 20 | > 20 |
| CO/N=C(\CCC(=O)O)c1nc2ccccc2n([C@H]2C[C@H]3CCC[C@@H](C2)N3C2CCCCCCCC2)c1=O [Compound 10, 4-[4-((1R,3R,7S)-9-cyclononyl-9-aza-bicyclo[3.3.1]non-3-yl)-3-oxo-3,4-dihydro-quinoxalin-2-yl]-4-methoxyimino-butyric acid] |  |  | > 20 | 0.104 ± 0.012 | > 20 | > 20 | > 20 |  | > 20 |
| CO/N=C(\CCC(=O)O)c1nc2ccccc2n([C@H]2C[C@H]3CCC[C@@H](C2)N3C2CCCCCCCCC2)c1=O [Compound 9, 4-[4-((1R,3R,7S)-9-cyclodecyl-9-aza-bicyclo[3.3.1]non-3-yl)-3-oxo-3,4-dihydro-quinoxalin-2-yl]-4-methoxyimino-butyric acid] |  |  | > 20 |  | > 20 | > 20 | > 20 |  | > 20 |

Source: US9040533B2, “Oxime-substituted-quinoxaline-type piperidine compounds as ORL-1 modulators” (priority 2012, dated 2015)
